Measurements from PubChem BioAssay AID2060341 (Molecular Pharmacology Branch, DTP, NCI, 2025).
Where “and” joins values, the source holds several entries; their conditions need not be identical. Equal values may be shown once.

System: 327498-153-R-J2-PDC multicell spheroid viability
Experiment: Anticancer human tumor 327498-153-R-J2-PDC patient-derived uterine carcinosarcoma cell line growth inhibition [IpAb]
Settings: for viability, T/C: stronger effect = lower value
Text: Combinatorial screen of targeted agents with ipatasertib and abemaciclib in multi-cell type tumor spheroids
A high-throughput screen of multi-cell type tumor spheroids was designed to identify active combinations of targeted small molecules and ipatasertib or abemaciclib. Complex spheroids include a stromal component modeled by human endothelial cells (HUVEC) and fibroblasts modeled by human mesenchymal stem cells (MSCs). The concentration ranges selected for each drug and investigational agent were based upon clinically achievable concentrations if the clinical Cmax of the agent was known.
Compounds. The drugs and investigational agents: ipatasertib (NSC767898), abemaciclib(NSC768073), selumetinib (NSC741078), trametinib (758246), adavosertib (NSC754352), everolimus (NSC733504), sapanisertib (NSC764658), vemurafenib (NSC761431), venetoclax (NSC766270), copanlisib (NSC809693), apelisib (NSC765974), palbociblib (NSC758247), vemurafenib (NSC761431), dabrafenib (NSC764134), ravoxertinib (NSC781343), BMS-387032 (NSC767048), sotorasib (NSC818433), talazoparib (NSC767125) and afursertib (NSC778305), were obtained from the National Cancer Institute (NCI) Developmental Therapeutics Program Chemical Repository. The FDA-approved anticancer drug set is available from the NCI Developmental Therapeutics Program. […] The stock solutions were prepared in dimethyl sulfoxide (DMSO, Sigma-Aldrich, St. Louis, MO, cat. D2650) at 800-fold the tested concentration and stored at -70 degrees C prior to their use. All drugs and investigational agents were tested over a range starting from a high concentration at or near the clinical Cmax and decreasing in half-log increments. If the clinical Cmax for an agent had not been determined, the highest concentration tested was 10 microM.
NCI60 Cell Culture. NCI60 cell lines were obtained from the NCI Developmental Therapeutics Program Tumor Repository. For each lot of cells, the Repository performed Applied Biosystems AmpFLSTR Identifiler testing with PCR amplification to confirm consistency with the published Identifier STR profile for each cell line. Cells were kept in continuous culture for no more than 20 passages. The optimal seeding densities for each of the cell lines at each time point assessed were determined prior to performing the concentration response studies. Briefly, the NCI60 human tumor lines were grown as monolayers in RPMI 1640 medium supplemented with 10% FBS and 2 mmol/L L-glutamine.
An additional 9 lines were from the NCI60 cell line panel including MDA-MB-231 breast carcinoma, MDA-MB-468 breast carcinoma, MCF7 breast carcinoma, Hs578T breast carcinoma, MALME-3M melanoma, SK-MEL-2 melanoma, SK-OV-3 ovarian carcinoma, DU-145 prostate carcinoma, PC-3 prostate carcinoma, all cell lines along with major genetic alterations are listed on Table 2. Pooled donor human umbilical vein endothelial cells (HUVEC, Lonza, cat. CC-2519) and human mesenchymal stem cells (hMSC, Lonza, cat. PT-2501) were purchased from Lonza (Walkersville, MD).
PDMR cell lines were grown in complete medium (DC medium): Dulbecco's modified Eagle's medium (DMEM)/F12 supplemented with 5% fetal bovine serum (FBS), 2 mM L-glutamine, 100 U/mL penicillin and 100 µg/ml streptomycin, 0.4 µg/ml hydrocortisone, 10 ng/ml epidermal growth factor (EGF) recombinant human protein, 24 µg/mL adenine, and 0.1 mg/mL primocin. During culture from frozen stock vials, PDMR cells were cultured in the same medium containing 10 µM Y-27632 (see Table 3). The PDCs were cultured in complete DMEM/F12 media without 10 microM Y-27632 dihydrochloride for at least two passages prior to the screen. The pooled donor HUVEC and hMSC were cultured in endothelial cell growth medium 2 (PromoCell, Heidelberg, Germany, cat. C-22011) and mesenchymal stem cell growth medium 2 (PromoCell, cat. C-28009), respectively. For all experiments, HUVEC and hMSC were used at passages </=5.
[…]

[1] = curve of first compound, second compound 0.01 µM
[2] = curve of first compound, second compound 0.0316 µM
[3] = curve of first compound, second compound 0.1 µM
[4] = curve of first compound, second compound 0.316 µM
[5] = curve of first compound, second compound 1 µM
[6] = second compound 0.01 µM, first compound 0.0316 µM
[7] = second compound 0.01 µM, first compound 0.1 µM
[8] = second compound 0.0316 µM, first compound 0.0316 µM
[9] = second compound 0.0316 µM, first compound 0.1 µM
[10] = second compound 0.1 µM, first compound 0.0316 µM
[11] = second compound 0.1 µM, first compound 0.1 µM
[12] = second compound 0.316 µM, first compound 0.0316 µM
[13] = second compound 0.316 µM, first compound 0.1 µM
[14] = second compound 1 µM, first compound 0.0316 µM
[15] = second compound 1 µM, first compound 0.1 µM
[16] = second compound 0.01 µM, first compound 0.316 µM
[17] = second compound 0.01 µM, first compound 1 µM
[18] = second compound 0.01 µM, first compound 3.16 µM
[19] = second compound 0.01 µM, first compound 10 µM
[20] = second compound 0.0316 µM, first compound 0.316 µM
[21] = second compound 0.0316 µM, first compound 1 µM
[22] = second compound 0.0316 µM, first compound 3.16 µM
[23] = second compound 0.0316 µM, first compound 10 µM
[24] = second compound 0.1 µM, first compound 0.316 µM
[25] = second compound 0.1 µM, first compound 1 µM
[26] = second compound 0.1 µM, first compound 3.16 µM
[27] = second compound 0.1 µM, first compound 10 µM
[28] = second compound 0.316 µM, first compound 0.316 µM
[29] = second compound 0.316 µM, first compound 1 µM
[30] = second compound 0.316 µM, first compound 3.16 µM
[31] = second compound 0.316 µM, first compound 10 µM
[32] = second compound 1 µM, first compound 0.316 µM
[33] = second compound 1 µM, first compound 1 µM
[34] = second compound 1 µM, first compound 3.16 µM
[35] = second compound 1 µM, first compound 10 µM
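Note: spheroids exposed to agents for 7 days.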
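Throughout, for viability, T/C: 100% = DMSO vehicle control viability.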

With `Cn1ncnc1[C@H]1c2n[nH]c(=O)c3cc(F)cc(c23)N[C@@H]1c1ccc(F)cc1` + CCN1CCN(Cc2ccc(Nc3ncc(F)c(-c4cc(F)c5nc(C)n(C(C)C)c5c4)n3)nc2)CC1 the IC50 [1] was 18.6 nM, the IC50 [2] was 12.1 nM and the IC50 [3] was 5.76 nM. The IC50 [4] was 2.84 nM, the IC50 [5] was 3.84 nM and the viability, T/C (second compound 0.01 µM, first compound 0.000316 µM) was 96%. The viability, T/C (second compound 0.01 µM, first compound 0.001 µM) was 87.3%, the viability, T/C (second compound 0.01 µM, first compound 0.00316 µM) was 85.3% and the viability, T/C (second compound 0.01 µM, first compound 0.01 µM) was 58.1%. For the same molecule, the viability, T/C [6] was 42.3%, the viability, T/C [7] was 25.2% and the viability, T/C (second compound 0.0316 µM, first compound 0.000316 µM) was 74.8%. The viability, T/C (second compound 0.0316 µM, first compound 0.001 µM) was 70%, the viability, T/C (second compound 0.0316 µM, first compound 0.00316 µM) was 63.3% and the viability, T/C (second compound 0.0316 µM, first compound 0.01 µM) was 50.3%. It also gave a viability, T/C [8] of 41.2%, a viability, T/C [9] of 28.2% and a viability, T/C (second compound 0.1 µM, first compound 0.000316 µM) of 68.3%. It also gave a viability, T/C (second compound 0.1 µM, first compound 0.001 µM) of 56.6%, a viability, T/C (second compound 0.1 µM, first compound 0.00316 µM) of 54.7% and a viability, T/C (second compound 0.1 µM, first compound 0.01 µM) of 47.2%. The viability, T/C [10] was 39.6%, the viability, T/C [11] was 28.9% and the viability, T/C (second compound 0.316 µM, first compound 0.000316 µM) was 59%. It also gave a viability, T/C (second compound 0.316 µM, first compound 0.001 µM) of 54%, a viability, T/C (second compound 0.316 µM, first compound 0.00316 µM) of 49.3% and a viability, T/C (second compound 0.316 µM, first compound 0.01 µM) of 44.8%. The viability, T/C [12] was 38.2%, the viability, T/C [13] was 32.5% and the viability, T/C (second compound 1 µM, first compound 0.000316 µM) was 62.2%. It also gave a viability, T/C (second compound 1 µM, first compound 0.001 µM) of 53.9%, a viability, T/C (second compound 1 µM, first compound 0.00316 µM) of 51.4% and a viability, T/C (second compound 1 µM, first compound 0.01 µM) of 45.1%. For the same molecule, the viability, T/C [14] was 40.8% and the viability, T/C [15] was 31.6%.

`Cn1nccc1Nc1nccc(-c2ccn(C(CO)c3ccc(Cl)c(F)c3)c(=O)c2)n1` (configuration not stated) + CCN1CCN(Cc2ccc(Nc3ncc(F)c(-c4cc(F)c5nc(C)n(C(C)C)c5c4)n3)nc2)CC1 was tested, and the IC50 [1] was 3680 nM, the IC50 [2] was 1960 nM and the IC50 [3] was 657 nM. It also gave an IC50 [4] of less than 31.6 nM, an IC50 [5] of less than 31.6 nM and a viability, T/C [6] of 78%. The viability, T/C [7] was 70.3%, the viability, T/C [16] was 67% and the viability, T/C [17] was 74.3%. It also gave a viability, T/C [18] of 53.6%, a viability, T/C [19] of 26.7% and a viability, T/C [8] of 69.1%. For the same molecule, the viability, T/C [9] was 55.4%, the viability, T/C [20] was 52.8% and the viability, T/C [21] was 57.9%. For the same molecule, the viability, T/C [22] was 48%, the viability, T/C [23] was 30.4% and the viability, T/C [10] was 55.6%. The viability, T/C [11] was 50%, the viability, T/C [24] was 48.5% and the viability, T/C [25] was 49.2%. The viability, T/C [26] was 44%, the viability, T/C [27] was 26.4% and the viability, T/C [12] was 53.5%. It also gave a viability, T/C [13] of 42.6%, a viability, T/C [28] of 42.4% and a viability, T/C [29] of 44.4%. It also gave a viability, T/C [30] of 41.5%, a viability, T/C [31] of 28.1% and a viability, T/C [14] of 46.1%. For the same molecule, the viability, T/C [15] was 45.3%, the viability, T/C [32] was 40.3% and the viability, T/C [33] was 43.6%. For the same molecule, the viability, T/C [34] was 45.3% and the viability, T/C [35] was 30.4%.

`C=CCn1c(=O)c2cnc(Nc3ccc(N4CCN(C)CC4)cc3)nc2n1-c1cccc(C(C)(C)O)n1` was tested, and the viability, T/C (compound 0.0316 µM) was 97% and 97.5%, the viability, T/C (compound 0.1 µM) was 106% and 94.9% and the viability, T/C (compound 0.316 µM) was 56.2% and 56.8%. The viability, T/C (compound 1 µM) was 4.15% and 5.89%, the viability, T/C (compound 3.16 µM) was 3.83% and 4.76% and the viability, T/C (compound 10 µM) was 5.49% and 6.6%. The IC50 (curve of compound) was 363 nM and 369 nM.

Molecule `CC1(C)CCC(CN2CCN(c3ccc(C(=O)NS(=O)(=O)c4ccc(NCC5CCOCC5)c([N+](=O)[O-])c4)c(Oc4cnc5[nH]ccc5c4)c3)CC2)=C(c2ccc(Cl)cc2)C1` + CCN1CCN(Cc2ccc(Nc3ncc(F)c(-c4cc(F)c5nc(C)n(C(C)C)c5c4)n3)nc2)CC1 has an IC50 [1] of 5020 nM, an IC50 [2] of 5020 nM and an IC50 [3] of 4470 nM. It also gave an IC50 [4] of 3890 nM, an IC50 [5] of 3560 nM and a viability, T/C [6] of 100%. The viability, T/C [7] was 91.6%, the viability, T/C [16] was 96.6% and the viability, T/C [17] was 86.9%. It also gave a viability, T/C [18] of 78.4%, a viability, T/C [19] of 10.2% and a viability, T/C [8] of 78%. It also gave a viability, T/C [9] of 75.8%, a viability, T/C [20] of 74.9% and a viability, T/C [21] of 77.2%. The viability, T/C [22] was 77.6%, the viability, T/C [23] was 9.98% and the viability, T/C [10] was 67.4%. It also gave a viability, T/C [11] of 71.5%, a viability, T/C [24] of 65.1% and a viability, T/C [25] of 75.9%. It also gave a viability, T/C [26] of 67.8%, a viability, T/C [27] of 8.52% and a viability, T/C [12] of 61.8%. The viability, T/C [13] was 54.3%, the viability, T/C [28] was 58.8% and the viability, T/C [29] was 61.4%. For the same molecule, the viability, T/C [30] was 61.3%, the viability, T/C [31] was 6.66% and the viability, T/C [14] was 62.9%. The viability, T/C [15] was 60.7%, the viability, T/C [32] was 54.5% and the viability, T/C [33] was 57.8%. It also gave a viability, T/C [34] of 54.8% and a viability, T/C [35] of 9.15%.
